# According to publication PMC4810081, “Venetoclax (ABT-199) Might Act as a Perpetrator in Pharmacokinetic Drug–Drug Interactions” (Pharmaceutics, 2016):
# Tested on: CYP1A2
# Assay: Western blot of CYP1A2 protein expression in LS180 cells
# Type: in vitro ADME, human
# Details: four days
# Method: For the induction experiments, LS180 cells were seeded in 75 cm^2 culturing flasks and incubated for three days. Cells were then treated with a culture medium containing venetoclax (0.01–10 µM) in quintuplicate for four consecutive days. Rifampicin (20 µM) served as a positive control for PXR-driven genes and culture medium as a negative control. All incubation solutions were adjusted to 0.02% DMSO. After harvesting, cells were split for RNA and protein extraction.
# To exemplarily verify the effects of venetoclax on mRNA expression, protein expressions of P-gp and CYP1A2 were analyzed in triplicate by SDS polyacrylamide gel electrophoresis (SDS-PAGE) and Western blotting. In brief, cell lysates containing 20 µg protein were mixed with 5× sample buffer (containing Tris–HCl, SDS, DTT, bromophenol blue, and glycerol) and subjected to 10% SDS-PAGE. Afterwards, proteins were electrotransferred to nitrocellulose nitrate membranes. Blots were blocked by incubation for 20–40 min with 5% Slim-Fast® (w/v) in phosphate-buffered saline containing 0.1% Tween®20. […] Bands were visualized by enhanced chemiluminescence using the SuperSignal®West Pico Chemiluminescent Substrate Kit and recorded by FluorChem Q SA AlphaView Version 3.2.2, Cell Biosciences (Santa Clara, CA, USA).
smiles,measurement,value
CC1(C)CCC(CN2CCN(c3ccc(C(=O)NS(=O)(=O)c4ccc(NCC5CCOCC5)c([N+](=O)[O-])c4)c(Oc4cnc5[nH]ccc5c4)c3)CC2)=C(c2ccc(Cl)cc2)C1 [Venetoclax],CYP1A2 protein expression,induction
